The record followed here is PMC12368606 (2025).

In experiment [1] the test system is Seq1s (RNA, hairpin) ACCGUGACGGGCCUUUUUGGCUAUACGCGGU
The experiment is described as follows: CSI-TOF mass spectrometry. The note with it: 40 μM NA, 5 μM RNA.

The subject of experiment [2] is Seq1s-4U (RNA, hairpin) ACCGUGACGGGCCUUUUGGCUAUACGCGGU
The experiment is described as follows: NMR solution structure and titration. The note with it: phosphate buffer, 5% D2O for titration.

The subject of experiment [3] is Seq1s (RNA, hairpin) ACCGUGACGGGCCUUUUUGGCUAUACGCGGU
The experiment is described as follows: UV thermal melting. The note with it: 10 μM NA; Tm 66.9 ± 2.0 to 72.1 ± 1.5 °C.

For the compound `Cc1ccc2ccc(NC(=O)CCNCCC(=O)NCc3ccc4ccc(=O)[nH]c4n3)nc2n1`, the binding entry in experiment [1] and in experiment [2] was “yes” each time. Further, the ΔTm in experiment [3] turned out to be 5.2 °C.
